Test results as given in patent publication US5071848A, “Tricyclic quinoline antineoplastic agents” (Abbott Laboratories, priority 1989, dated 1991).
Values after ≈ are worked out from the molar mass of the structure shown. “Also recorded” adds a separate entry of the source. Read-outs that look alike come from different tables or passages of the source.

Columns and labels:
A549 cell line = experiment: In vitro cytotoxicity assay (three day MTT microtiter assay), A549; assay type: cell-based; settings: Homo sapiens, read-out: In vitro tumor cell cytotoxicity (IC50), A549
Experimental: (§1) IC50 's were measured in a colorimetric assay for cytotoxic activity against cultured cells according to the protocol described below:
(§2) A three day microtiter assay is used to measure the growth inhibition of cultured cells exposed to a range of drug concentrations. Metabolic activity is measured by the cell's ability to reduce the tetrazolium dye, MTT (3-(4,5-dimethylthiazol-2-yl)-2,5-diphenyltetrazolium bromide) to a quantifiable colored end-product, which absorbs at 570 nm in the visible spectrum. Surviving cells reduce the MTT dye.
(§3) Test compounds are dissolved in dimethyl sulfoxide (DMSO) and diluted, first with Earle's Balanced Salt Solution, followed by culture medium, to twice the highest concentration of compound to be tested. From this concentrated stock, two-fold serial dilutions are prepared in 96-well microtiter trays, each well containing twice the desired final concentration of compound. Each concentration is tested in triplicate and compared to triplicate drug-free controls.
(§4) The cells are grown in the same medium used for diluting the compounds. After harvesting by trypsinization*, viable cell counts are determined and cell density is adjusted to 25,000 cells/mL. Inoculum (0.1 mL), containing the cells, is then added to each well for a final concentration of 2,500 cells per well. Addition of the inoculum dilutes the test compounds to the desired final concentration.
(§5) *Adherent cells are harvested by trypsinization as follows:
(§6) 1. Remove the medium by aspiration.
(§7) 2. Rinse cell monolayer twice with Earle's Balanced Salt Solution.
(§8) 3. Add trypsin (0.05%)/EDTA (0.53 mM). For each 25 cm^2 use approximately 0.2 mL of solution, tilt to cover the monolayer, then withdraw trypsin leaving only a thin film of solution. Incubate at room temperature until cell monolayer detaches.
(§9) 4. When the cells have detached as determined by visual and/or microscopic observation, add medium containing fetal calf serum to stop the action of the trypsin and resuspend the cells. Triturate to aid dissociation of cell clumps.
(§10) 5. Determine the number of cells per milliliter by electronic cell counter (e.g. Coulter Counter) or by mixing an aliquot of cell suspension with Trypan Blue (0.4% in normal saline) and counting the viable cells using a hemacytometer.
(§11) Microtiter trays are incubated for three days at 36° C. in a humidified atmosphere containing 5% carbon dioxide.
(§12) After three days, 20 microtiters of 5 mg/mL MTT in phosphate-buffered saline solution is added to each well. Trays are returned to the incubator for two to four hours to allow the surviving cells to reduce the dye. Medium and unreduced dye are removed by aspiration. DMSO is added to each well to dissolve the water insoluble, colored end product of the dye reduction so that it can be measured spectrophotometrically at 570 nm.

[1] = system: P388.D1 leukemia cell line; experiment: In vitro cytotoxicity assay (three day MTT microtiter assay), P388.D1; assay type: cell-based; settings: Mus musculus, P388D1, 72 h, read-out: In vitro tumor cell cytotoxicity (IC50), P388.D1
Experimental: (§13) The cytotoxity of the compounds of the present invention is illustrated in Table 6. IC50 's were measured in a colorimetric assay for cytotoxic activity against cultured cells according to the protocol described below:
as §2, §3, §4, §5, §6, §7, §8, §9, §10, §11
as §12, with “nm. The IC50 is determined as the concentration of compound tested required to reduce the absorbance at 570 nm to 50% of non-drug treated control values.” for “nm.”
^c P388 D1 is a leukemia cell line.

DNA topoisomerase II = experiment: DNA Breakage Assay: topoisomerase II-mediated DNA breakage (linearized 32P-labeled PBR 322 plasmid, agarose gel); assay type: biochemical, calf; parameters: key to Topoisomerase II-mediated DNA breakage, extent of breakage: SB: strong breakage; MB: moderate breakage; WB: weak breakage; settings: for Topoisomerase II-mediated DNA breakage, extent of breakage: at the concentration given; for Topoisomerase II-mediated DNA breakage, Concentration: concentration of compound which cleaves the DNA to smaller fragments, 30 minutes incubation
Experimental: Antitumor activity was assayed using the DNA Breakage Assay described below.
The DNA breakage assay requires two major reagents: DNA topoisomerase II and radiolabeled DNA. DNA topoisomerase II (topo II) was isolated from calf thymus as described by B. D. Holligan, et al. in J. Biol. Chem., 260, 2475-2482 (1985). Pure enzyme or partially purified extracts enriched in topo II activity may be used. PBR 322 plasmid was used as the DNA substrate. This plasmid, which is isolated in the closed circular form, is first linearized using, a restriction enzyme which cuts the plasmid in only one place. The newly exposed ends of the plasmid are then labeled with the radionuclide, 32P, using standard techniques described by T. Maniatis, et al. in "Molecular Cloning", Cold Spring Harbor Press, p. 115 (1982).
The enzyme and the radiolabeled DNA are added together first, then drug is added. After an incubation period of 30 minutes, the mixtures are quenched using 1% SDS. The mixtures are then subjected to agarose gel electrophoresis which separates the full length, linear substrate DNA from any small fragments that might be formed as a consequence of drug action. Smaller fragments run with a higher mobility. The distribution of the DNA species in the gel is assessed by autoradiography as described by T. Maniatis, et al. in "Molecular Cloning", Cold Spring Harbor Press, p. 115 (1982).
DNA breakage activity is assessed based on the level of substrate lost, the level of DNA appearing as smaller pieces running faster in the gel, and the distribution of these smaller pieces in the gel. The last criterion is important since drug-induced DNA cleavage that is enzyme-mediated fragmentation results in specific banding patterns due to the fact that the enzyme binds to specific sequences along the DNA molecule. A definite banding pattern is thus indicative of topo II-mediated cleavage and correlates well with anti-tumor activity.

[2] = system: Lewis Lung carcinoma (LL); experiment: In vivo antitumor activity, Lewis Lung carcinoma (LL), tumor weight inhibition; parameters: species or system BDF1 mice; settings: IP, day 1 to day 9, determined on day 14
Experimental: (§14) The in vivo data presented in Table 7 was determined in BDF1 mice for two murine cancer models, using 6 to 10 animals per test group. In the case of Lewis Lung carcinoma (LL) the mice are inoculated subcutaneously (SC) in the axillary region with a puncture in the inguinal area with the tumor on day 0. The compound being tested is administered intraperitoneally (IP) from day 1 to day 9 for a total of nine injections. The tumors are weighed on day 14 and the weight inhibition expressed as the median weight ratio of treated (T) to control (C) tumors. In the case of P388 Leukemia cells, a suspension of diluted ascites fluid (0.1 mL) containing 1×10^6 cells is implanted IP into the mice on day 0 and the compound being tested is administered IP from day 1 to day 5 for a total of five injections. Survival was monitored for 30 days and the increased lifespan expressed as median survival time of treated (T) to control (C) mice.

P388 Leukemia = experiment: In vivo antitumor activity, P388 Leukemia, increased lifespan; parameters: species or system BDF1 mice; settings: IP, day 1 to day 5, survival monitored 30 days
Experimental: as §14

[3] = system: HCT-8 colon cancer cell line; experiment: In vitro cytotoxicity assay (three day MTT microtiter assay), HCT-8; assay type: cell-based, human; settings: read-out: In vitro tumor cell cytotoxicity (IC50), HCT-8
Experimental: as §1, §2
Test compounds are dissolved in dimethyl sulfoxide (DMSO) and diluted, first with Earle's Balanced Salt Solution, followed by culture medium, to twice the highest concentration of compound to be tested. […]
The cells are grown in the same medium used for diluting the compounds. After harvesting by trypsinization*, viable cell counts are determined and cell density is adjusted to 25,000 cells/mL. […]
(§15) 4. When the cells have detached as determined by visual and/or microscopic observation, add medium containing fetal calf serum to stop the action of the trypsin and resuspend the cells. […]
After three days, 20 microtiters of 5 mg/mL MTT in phosphate-buffered saline solution is added to each well. […] DMSO is added to each well to dissolve the water insoluble, colored end product of the dye reduction so that it can be measured spectrophotometrically at 570 nm.

DNA topoisomerases = settings: in words; known antitumor drugs; cited from earlier work
Hela cells = experiment: In vitro cytotoxicity assay (three day MTT microtiter assay), Hela; assay type: cell-based; settings: Homo sapiens, 72 h, read-out: In vitro tumor cell cytotoxicity (IC50), Hela
Experimental: as §1, §2, §3, §4, §5, §6, §7, §8, §9, §10, §11, §12

[4] = system: Lewis Lung Carcinoma (LLC1) cells; experiment: In vitro cytotoxicity assay (three day MTT microtiter assay), LLC1; assay type: cell-based, murine; settings: Mus musculus, LLC1, 72 h, read-out: In vitro tumor cell cytotoxicity (IC50), LLC1
Experimental: as §13, §2, §3, §4, §5, §6, §7
3. […]
as §15
After three days, 20 microtiters of 5 mg/mL MTT in phosphate-buffered saline solution is added to each well. […] DMSO is added to each well to dissolve the water insoluble, colored end product of the dye reduction so that it can be measured spectrophotometrically at 570 nm. […]

CC1CN(c2c(F)cc3c(=O)c4c(=O)[nH]sc4n(C4CC4)c3c2F)CCN1 (centres unmarked) [Example 3]
IC50 (A549 cell line; 72 h, A549, three days, MTT): 8.3 µg/mL (≈ 21.2 µM)
IC50 [1]: 3.1 µg/mL (≈ 7.9 µM)
Topoisomerase II-mediated DNA breakage, extent of breakage (DNA topoisomerase II): SB
Topoisomerase II-mediated DNA breakage, Concentration (DNA topoisomerase II): 32 µg/mL
LL (T/C), median weight ratio of treated to control tumors ([2]; 31.5 mg/kg): 0.81
LL (T/C), median weight ratio of treated to control tumors ([2]; 62.5 mg/kg): 0.75
LL (T/C), median weight ratio of treated to control tumors ([2]; 125 mg/kg): 0.59
LL (T/C), median weight ratio of treated to control tumors ([2]; 250 mg/kg): 0.35
P388 Leukemia % T/C, median lifespan of treated compared to control mice (P388 Leukemia; 31.5 mg/kg): 145%
P388 Leukemia % T/C, median lifespan of treated compared to control mice (P388 Leukemia; 62.5 mg/kg): 145%
P388 Leukemia % T/C, median lifespan of treated compared to control mice (P388 Leukemia; 125 mg/kg): 160%
P388 Leukemia % T/C, median lifespan of treated compared to control mice (P388 Leukemia; 250 mg/kg): 160%
IC50 ([3]; 72 h, HCT-8 human colon cancer, three days, MTT): 14 µg/mL (≈ 35.7 µM)

O=C1c2c(O)ccc(O)c2C(=O)c2c(NCCNCCO)ccc(NCCNCCO)c21 [mitoxantrone]
effect on DNA topoisomerase-mediated DNA breakage-rejoining / cleavage (DNA topoisomerases): found to affect the breakage-rejoining reaction of mammalian DNA mediated by DNA topoisomerases

CCn1c2s[nH]c(=O)c2c(=O)c2cc(F)c(N3CCNCC3)c(F)c21 [Example 14]
IC50 (Hela cells; HeLa): 4 µg/mL (≈ 10.9 µM)
IC50 [4]: 1.5 µg/mL (≈ 4.09 µM)
Topoisomerase II-mediated DNA breakage, extent of breakage (DNA topoisomerase II): MB
Topoisomerase II-mediated DNA breakage, Concentration (DNA topoisomerase II): 64 µg/mL

COc1cc([C@@H]2c3cc4c(cc3[C@@H](O[C@@H]3O[C@@H]5CO[C@@H](C)O[C@H]5[C@H](O)[C@H]3O)[C@H]3COC(=O)[C@H]23)OCO4)cc(OC)c1O [Etoposide, etoposide, reference compound]
IC50 (A549 cell line; A549, 72 h): 1 µg/mL (≈ 1.7 µM)
IC50 [1]: 0.05 µg/mL (≈ 0.085 µM)
IC50 (Hela cells; HeLa): 4 µg/mL (≈ 6.8 µM)
effect on DNA topoisomerase-mediated DNA breakage-rejoining / cleavage (DNA topoisomerases): found to affect the breakage-rejoining reaction of mammalian DNA mediated by DNA topoisomerases; also recorded: known to act by inducing topo II mediated DNA cleavage
IC50 ([3]; Homo sapiens, HCT-8, 72 h): 0.68 µg/mL (≈ 1.16 µM)

COc1cc([C@@H]2c3cc4c(cc3[C@@H](O[C@@H]3O[C@@H]5CO[C@@H](c6cccs6)O[C@H]5[C@H](O)[C@H]3O)[C@H]3COC(=O)[C@H]23)OCO4)cc(OC)c1O [teniposide]
effect on DNA topoisomerase-mediated DNA breakage-rejoining / cleavage (DNA topoisomerases): found to affect the breakage-rejoining reaction of mammalian DNA mediated by DNA topoisomerases; also recorded: known to act by inducing topo II mediated DNA cleavage

NC1CCN(c2c(F)cc3c(=O)c4c(=O)[nH]sc4n(C4CC4)c3c2F)C1 (centres unmarked) [Example 11]
IC50 (Hela cells; Hela cells, three days, MTT): 0.95 µg/mL (≈ 2.51 µM)
IC50 ([4]; Lewis Lung Carcinoma, three days, MTT): 0.52 µg/mL (≈ 1.37 µM)
Topoisomerase II-mediated DNA breakage, extent of breakage (DNA topoisomerase II): SB
Topoisomerase II-mediated DNA breakage, Concentration (DNA topoisomerase II): 32 µg/mL

O=c1[nH]sc2c1c(=O)c1cc(F)c(N3CCNCC3)c(F)c1n2C1CC1 [Example 2]
IC50 (Hela cells; HeLa): 3.9 µg/mL (≈ 10.3 µM)
IC50 [4]: 0.99 µg/mL (≈ 2.62 µM)
Topoisomerase II-mediated DNA breakage, extent of breakage (DNA topoisomerase II): SB
Topoisomerase II-mediated DNA breakage, Concentration (DNA topoisomerase II): 32 µg/mL
